Experimental findings from patent US12569467B2, “Small molecules that treat or prevent viral infections” (priority 2022, dated 2026) are described below.

In experiment [1] the test system is SARS-CoV-2 variant Delta Spike protein pseudotyped lentiviral particles. As to the kind of experiment: microbe, parasite or virus in culture. Type of experiment: cell-based, SARS-CoV-2 Delta variant. The note with it: Severe acute respiratory syndrome coronavirus 2, HEK293, read-out: EC50, inhibition of infection of Delta variant.
The subject of experiment [2] is SARS-CoV-2 variant Omicron Spike protein pseudotyped lentiviral particles. The experiment in a line: microbe, parasite or virus in culture. Type of experiment: cell-based, SARS-CoV-2 Omicron variant. Conditions: Severe acute respiratory syndrome coronavirus 2, HEK293, read-out: EC50, inhibition of infection of Omicron variant.
In experiment [3] the test system is spike protein of Delta variant. Type of experiment: binding, SARS-CoV2 Delta variant.
Experiment [4] concerns spike protein of Omicron variant. Type of experiment: binding, SARS-CoV2 Omicron variant.

With `O=C1Nc2ccccc2/C1=C\c1ccc(-c2cc(C(F)(F)F)cc(C(F)(F)F)c2)o1` [CD04872SC, 3-({5-[3,5-di(trifluoromethyl)phenyl]-2-furyl}methylidene)indolin-2-one], the EC50 in experiment [1] stood at 152 µM; in experiment [2], 308 µM. For the same molecule, the “thermal stability change in presence of compound” value in experiment [3] and in experiment [4] was “same stabilizing tendency” in each case.
